# Reference: US10858335B2 (Rigel Pharmaceuticals, Inc., priority 2014, dated 2020)
# System: GDF8 signaling (p-SMAD-3 (Ser423/425))
# Test: AlphaScreen SureFire SMAD3 (p-Ser423/425) assay, GDF8-stimulated cells (GDF pSMAD)
# Assay type: cell-based
# Details: Mus musculus, MPC-11, MPC11; GDF8-stimulated; p-SMAD3 AlphaScreen; read-out: GDF pSMAD (MPC11) (inhibition of GDF8 signaling)
# From the text: Biological Example 1: AlphaScreen® SureFire® SMAD3 (p-Ser423/425) Assay
# The p-SMAD-3 (Ser423/425) SureFire® assay has been designed to measure the phosphorylation of endogenous cellular p-SMAD-3 (Ser423/425) in cell lysates and is a system for the screening of both modulators of receptor activation (e.g. agonists and antagonists) as well as agents acting intracellularly, such as small molecule inhibitors of upstream events. The assay will measure p-SMAD-3 (Ser423/425) activation by either cloned or endogenous receptors, and can be applied to primary cells.
# P-SMAD-3 (Ser423/425) SureFire® Assay Protocols
# Step A: Preparation of Buffers
# 1× Lysis buffer: 1 ml of 5× Lysis buffer was diluted with 4 ml of sterile water. After dilution, excess 1× Lysis buffer can be frozen and thawed up to 5 times without loss in activity.
# Activation buffer: The buffer was warmed slowly to 37° C. and gently mixed to re-suspend. Activation buffer can be stored at room temperature with no loss in activity.
# Reaction buffer: The buffer was kept at 4° C. while in use.
# AlphaScreen® Protein A IgG Kit: The kit was stored at 4° C. in the dark.
# Reaction buffer+Activation buffer+AlphaScreen® Acceptor beads: Reaction buffer (40 parts), Activation Buffer (10 parts) and Acceptor beads (1 part) were mixed and the mixture was stored at room temperature and used the same day. Mixture was added to 384-well plates; excess mixture was discarded.
# Dilution buffer+AlphaScreen® Donor beads: Dilution buffer (20 parts) and Donor beads (1 part) were mixed and the mixture was stored at room temperature and used the same day. Excess mixture was discarded.
# Assay control samples: After reconstitution in 250 μl of water, lysates were at −20° C. in single use aliquots.
# Step B: Preparation of Samples and Cells
# 96-well Assay Protocol for 293FT and RMS13 adherent cells can be carried out manually or in high throughput with liquid handling robots.
# The cells (80 μL of cells for 96 well plates) were plated in collagen coated tissue culture plates in RPMI or FreeStyle medium (Invitrogen) and incubated overnight. For manual analysis, 6 plates for GDF8, 6 plates for TGFβ, and optionally 6 plates for AlkSca(ALK5 constitutively active) were used.
# The compound dilution plates were prepared as follows: 12 μL of DMSO was transferred into first column of 96-well plate, and 16 μL of DMSO was transferred into columns 2-12 of the 96-well plate. 12 μL of compound solution was transferred into first column of the DMSO-containing 96-well plate. Three-fold dilution was performed up to column 10 of the DMSO-containing 96-well plate.
# Step C: Treatment and Analysis
# The plate containing cells were treated with compounds for about 10 minutes, and then ligand was added. GDF8 or TGFb was added to plates to stimulate. 293FL cells were stimulated for 90 minutes at 37° C.; and RMS13 cells were stimulated for 60 minutes at 37° C. The medium was then removed from the cells, and 1× Lysis Buffer (about 25 μL) was added and the plate was gently agitated on plate shaker for 5-10 minutes.
# The lysate (5 μL) was then placed into 384-well shallow plates avoiding the generation of bubbles. To this, the Reaction Buffer+Activation Buffer+AlphaScreen® Acceptor beads mixture (5 μL) was added. The plate was sealed with adhesive cover and shielded from light (e.g., with metal foil), and agitated gently on plate shaker for 2 hours at room temperature.
# Dilution buffer+AlphaScreen® Donor beads (2 μL) was then added, and the plate was intubated on the plate shaker for an additional 1½ hours. After completion, the plate was read on Synergy-4 or Enspire plate reader, using AlphaScreen® pSMAD3® settings.
# Representative results for inhibition of GDF8 signaling are shown in Table 2(data=GDF pSMAD (MPC11) (μM)): […]
row,IC50,SMILES
1,2050 nM,"Cc1cc(-c2ncccc2-c2ccc3ncc(C(C)O)n3c2)ccc1F (racemic) [compound 598, rac-1-(6-(2-(4-Fluoro-3-methylphenyl)pyridin-3-yl)imidazo[1,2-a]pyridin-3-yl)ethan-1-ol]"
2,1650 nM,"CCOc1cnc(-c2ccc(F)c(C)c2)c(-c2ccc3[nH]ncc3c2)c1 [Compound 1, 5-(5-Ethoxy-2-(4-fluoro-3-methylphenyl)pyridin-3-yl)-1H-indazole]"
3,1300 nM,"CCOc1cnc(-c2cccc(C)c2)c(-c2ccc3[nH]ncc3c2)c1 [Compound 3, 5-(5-Ethoxy-2-m-tolylpyridin-3-yl)-1H-indazole]"
4,18600 nM,"CCOc1cnc(-c2ccc(F)cc2)c(-c2ccc3[nH]ncc3c2)c1 [Compound 6, 5-(5-Ethoxy-2-(4-fluorophenyl)pyridin-3-yl)-1H-indazole]"
5,23100 nM,"CCOc1cnc(-c2ccc(F)c(F)c2)c(-c2ccc3[nH]ncc3c2)c1 [Compound 7, 5-(5-Ethoxy-2-(3,4-difluorophenyl)pyridin-3-yl)-1H-indazole]"
6,5350 nM,"COc1cnc(-c2ccc(F)c(C)c2)c(-c2ccc3[nH]ncc3c2)c1 [Compound 8, 5-(2-(4-Fluoro-3-methylphenyl)-5-methoxypyridin-3-yl)-1H-indazole]"
7,5140 nM,"Cc1cc(-c2ncc(Cl)cc2-c2ccc3[nH]ncc3c2)ccc1F [Compound 9, 5-(5-Chloro-2-(4-fluoro-3-methylphenyl)pyridin-3-yl)-1H-indazole]"
8,594 nM,"Cc1cnc(-c2ccc(F)c(C)c2)c(-c2ccc3[nH]ncc3c2)c1 [Compound 11, 5-(2-(4-Fluoro-3-methylphenyl)-5-methylpyridin-3-yl)-1H-indazole]"
9,18900 nM,"Cc1ccc(-c2ccc3[nH]ncc3c2)c(-c2ccc(F)c(C)c2)n1 [Compound 12, 5-(2-(4-Fluoro-3-methylphenyl)-6-methylpyridin-3-yl)-1H-indazole]"
10,64.9 nM,"Nc1cnc(-c2cccc(C3CC3)c2)c(-c2ccc3[nH]ncc3c2)c1 [Compound 15, 6-(3-Cyclopropylphenyl)-5-(1H-indazol-5-yl)pyridin-3-amine]"
11,6340 nM,"CC(C)c1cccc(-c2ncc(N)cc2-c2ccc3[nH]ncc3c2)c1 [Compound 16, 5-(1H-Indazol-5-yl)-6-(3-isopropylphenyl)pyridin-3-amine]"
12,336 nM,"Cc1cc(-c2ncc(N)cc2-c2ccc3[nH]ncc3c2)ccc1F [Compound 17, 6-(4-Fluoro-3-methylphenyl)-5-(1H-indazol-5-yl)pyridin-3-amine]"
13,142 nM,"Cc1cc(-c2ncc(N)cc2-c2ccc3ncsc3c2)ccc1F [Compound 18, 5-(Benzo[d]thiazol-6-yl)-6-(4-fluoro-3-methylphenyl)pyridin-3-amine]"
14,83 nM,"Nc1cnc(-c2cccc(C3CC3)c2)c(-c2ccc3ncsc3c2)c1 [Compound 19, 5-(Benzo[d]thiazol-6-yl)-6-(3-cyclopropylphenyl)pyridin-3-amine]"
15,104 nM,"Cc1cccc(-c2ncc(N)cc2-c2ccc3ncsc3c2)c1 [Compound 20, 5-(Benzo[d]thiazol-6-yl)-6-m-tolylpyridin-3-amine]"
16,1920 nM,"Cc1cc(-c2nc(N)ccc2-c2ccc3[nH]ncc3c2)ccc1F [Compound 21, 6-(4-Fluoro-3-methylphenyl)-5-(1H-indazol-5-yl)pyridin-2-amine]"
17,1410 nM,"Nc1ccc(-c2ccc3[nH]ncc3c2)c(-c2cccc(C3CC3)c2)n1 [Compound 22, 6-(3-Cyclopropylphenyl)-5-(1H-indazol-5-yl)pyridin-2-amine]"
18,2240 nM,"Cc1cccc(-c2nc(N)ccc2-c2ccc3[nH]ncc3c2)c1 [Compound 23, 5-(1H-Indazol-5-yl)-6-m-tolylpyridin-2-amine]"
19,671 nM,"CC(=O)Nc1cnc(-c2ccc(F)c(C)c2)c(-c2ccc3[nH]ncc3c2)c1 [Compound 24, N-(6-(4-Fluoro-3-methylphenyl)-5-(1H-indazol-5-yl)pyridin-3-yl)acetamide]"
20,612 nM,"CC(=O)Nc1cnc(-c2cccc(C3CC3)c2)c(-c2ccc3[nH]ncc3c2)c1 [Compound 25, N-(6-(3-Cyclopropylphenyl)-5-(1H-indazol-5-yl)pyridin-3-yl)acetamide]"
21,453 nM,"Cc1cc(-c2nc(N)ccc2-c2ccc3ncsc3c2)ccc1F [Compound 27, 5-(Benzo[d]thiazol-6-yl)-6-(4-fluoro-3-methylphenyl)pyridin-2-amine]"
22,1750 nM,"Nc1ccc(-c2ccc3ncsc3c2)c(-c2cccc(C3CC3)c2)n1 [Compound 28, 5-(Benzo[d]thiazol-6-yl)-6-(3-cyclopropylphenyl)pyridin-2-amine]"
23,1450 nM,"Cc1cccc(-c2nc(N)ccc2-c2ccc3ncsc3c2)c1 [Compound 29, 5-(Benzo[d]thiazol-6-yl)-6-m-tolylpyridin-2-amine]"
24,3700 nM,"Cc1cc(-c2ncc(NS(C)(=O)=O)cc2-c2ccc3[nH]ncc3c2)ccc1F [Compound 30, N-(6-(4-Fluoro-3-methylphenyl)-5-(1H-indazol-5-yl)pyridin-3-yl)methanesulfonamide]"
25,1900 nM,"CS(=O)(=O)Nc1cnc(-c2cccc(C3CC3)c2)c(-c2ccc3[nH]ncc3c2)c1 [Compound 31, N-(6-(3-Cyclopropylphenyl)-5-(1H-indazol-5-yl)pyridin-3-yl) methanesulfonamide]"
26,2800 nM,"Cc1cccc(-c2ncc(NS(C)(=O)=O)cc2-c2ccc3[nH]ncc3c2)c1 [Compound 32, N-(5-(1H-Indazol-5-yl)-6-m-tolylpyridin-3-yl) methanesulfonamide]"
27,10800 nM,"Cc1cc(-c2ncccc2-c2ccc3ncn(CCN4CCOCC4)c3c2)ccc1F [Compound 35, 6-(2-(4-Fluoro-3-methylphenyl)pyridin-3-yl)-1-(2-morpholinoethyl)-1H-benzo[d]imidazole]"
28,19700 nM,"Cc1cccc(-c2ncccc2-c2ccc3ncn(CCN4CCOCC4)c3c2)c1 [Compound 36, 1-(2-Morpholinoethyl)-6-(2-m-tolylpyridin-3-yl)-1H-benzo[d]imidazole]"
29,18100 nM,"Cc1cc(-c2ncccc2-c2ccc3ncn(CCN4CCN(C)CC4)c3c2)ccc1F [Compound 37, 6-(2-(4-Fluoro-3-methylphenyl)pyridin-3-yl)-1-(2-(4-methylpiperazin-1-yl)ethyl)-1H-benzo[d]imidazole]"
30,14300 nM,"CCOCCCn1cnc2ccc(-c3cccnc3-c3cccc(C)c3)cc21 [Compound 39, 1-(3-Ethoxypropyl)-6-(2-m-tolylpyridin-3-yl)-1H-benzo[d]imidazole]"

row,SMILES,IC50
1,"Cc1cc(-c2ncccc2-c2ccc3ncc(C(=O)NC4CC5CCC(C4)N5C)n3c2)ccc1F (racemic) [compound 711, rac-6-(2-(4-Fluoro-3-methylphenyl)pyridin-3-yl)-N-(8-methyl-8-azabicyclo[3.2.1]octan-3-yl)imidazo[1,2-a]pyridine-3-carboxamide]",9280 nM
2,"Cc1cc(-c2ncccc2-c2ccn3ncc(C(=O)NC4CC5CCC(C4)N5C)c3c2)ccc1F (racemic) [compound 714, rac-5-(2-(4-Fluoro-3-methylphenyl)pyridin-3-yl)-N-(8-methyl-8-azabicyclo[3.2.1]octan-3-yl)pyrazolo[1,5-a]pyridine-3-carboxamide]",5660 nM
